Reference: US9814709B2, “Bruton's tyrosine kinase inhibitor” (HEFEI INSTITUTES OF PHYSICAL SCIENCE, CHINESE ACADEMY OF …, priority 2014, dated 2017)

Assays:
[1] = tested on: PLCγ2Y1217 phosphorylation; experiment: Phosphorylation of PLCγ2 Y1217 in anti-IgM stimulated Ramos cells; assay type: cell-based; conditions: Homo sapiens, 4 hrs treatment, anti-IgM 10 min, read-out: EC50, inhibition of phosphorylation of PLCγ2Y1217
Method: (§1) We further characterized the properties of the compounds by assaying a number of cellular biochemical and functional endpoints. In particular, we assessed the selectivity of Compound 1 for inhibition of Btk versus the closely related protein kinases S6K, AKT, ErK, JAK3, and STAT5. Ramos cells (human B cells, purchased from ATCC) were treated with different concentrations of 10 nM, 100 nM, 1000 nM of the compounds of formula (I) for 4 hrs, followed by stimulation with anti-IgM for 10 min, and then the samples were harvested. We determined the effect of compounds on phosphorylation of BTKY223, PLCγ1Y783, PLCγ2Y759, PLCγ2Y1217, AKTT308, Erk1/2T202/204, JAK3 T980/981, STAT5 T694, mTORC1T389, MNK2 (FIG. 1).

tyrosine Y223 on Btk = biological target: T1, tyrosine Y223 on Btk (Homo sapiens, UniProt Q06187); experiment: Phosphorylation of BTK Y223 in anti-IgM stimulated Ramos cells; assay type: cell-based; conditions: 4 hrs treatment, anti-IgM 10 min, read-out: EC50, inhibition of phosphorylation of tyrosine Y223 on Btk
T1 construct: host or cells: Ramos cells
T1 sequence (Q06187 whole entry): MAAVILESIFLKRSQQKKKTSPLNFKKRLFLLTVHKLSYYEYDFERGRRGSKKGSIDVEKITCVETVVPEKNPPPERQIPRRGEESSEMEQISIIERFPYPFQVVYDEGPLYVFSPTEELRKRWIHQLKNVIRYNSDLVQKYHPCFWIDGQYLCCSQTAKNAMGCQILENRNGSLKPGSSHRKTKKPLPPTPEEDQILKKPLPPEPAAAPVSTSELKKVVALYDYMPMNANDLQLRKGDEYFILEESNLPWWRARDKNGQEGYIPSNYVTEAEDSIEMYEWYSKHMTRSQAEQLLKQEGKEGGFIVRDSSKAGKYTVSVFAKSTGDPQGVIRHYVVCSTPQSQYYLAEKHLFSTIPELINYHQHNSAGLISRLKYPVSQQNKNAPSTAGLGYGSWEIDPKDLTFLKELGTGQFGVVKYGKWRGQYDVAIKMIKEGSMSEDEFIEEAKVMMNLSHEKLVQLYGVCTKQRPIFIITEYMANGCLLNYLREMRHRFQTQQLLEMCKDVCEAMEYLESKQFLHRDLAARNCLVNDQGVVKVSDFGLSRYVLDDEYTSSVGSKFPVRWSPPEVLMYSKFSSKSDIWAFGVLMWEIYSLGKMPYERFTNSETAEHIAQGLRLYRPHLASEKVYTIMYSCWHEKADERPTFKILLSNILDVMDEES
Method: as §1

BTK = BTK (Homo sapiens, UniProt Q06187); experiment: In vitro enzymatic activity (ADP-Glo); assay type: biochemical; parameters: purchased Progema (US) [sic; Promega]; conditions: 4 hrs preincubation, 10 μM ATP
Chain of BTK (Q06187 whole entry): as above
Method: In the experimental assay of in vitro enzymatic activity, the IC50 values of Compound 1 and Compound 19 on different kinases including BTK, EGFR (WT), EGFR/T790M, EGFR L858R/T790M, JAK1, JAK2, and JAK3 were determined. The intracellular segment (699-1068) region of EGFR was cloned into the insect expression vector pAcG2T, and was protein expressed by using an insect expression system, BaculoGold™ Baculovirus Expression System (BD Pharmingen), with GST tag. The mutations of T790M and L858R sites were performed simultaneously to give T790M single mutant vector and T790M/L858R double mutant vector of EGFR, respectively. The established vectors were transfected into SF9 packaging viruses, so as to infect the SF9-expressed proteins with the viruses; JAK1 and JAK2 were purchased from Life Technologies (US) and Abcam (US), respectively; JAK3 and BTK were purchased from Progema (US). […]
(§2) 10 μL of kinase detection reagent was added to transfer ADP into ATP, and the newly obtained ATP was detected by using coupled luciferase/fluorescein reaction, then the IC50 values were calculated by using a plotting method based on the Envision reading.

BTK WT protein = biological target: T2, BTK WT protein (Homo sapiens, UniProt Q06187); experiment: Btk acellular kinase assay, BTK WT protein purified from transfected 293T cells; assay type: biochemical; conditions: 100 μM ATP
T2 construct: made in house; host or cells: 293T cells
T2 sequence (Q06187 whole entry): as above
Method: The BTK wild-type plasmid and the BTK mutant plasmid (C481S) were respectively transfected into 293T cells (purchased from ATCC), and the resultant cells were marked as BTK WT 293T cells and BTK C481S 293T cells, respectively. After cell culture for 2 days, the cells were harvested and purified to give BTK WT and BTK C481S proteins. The compounds of formula (I) were added to the BTK WT and BTK C481S proteins at different concentrations of 3 nM, 10 nM, 30 nM, 100 nM, 300 nM and 1000 nM, respectively, and reacted at room temperature for 30 min, followed by the addition of 100 μM ATP at 37° C. and reacting for 20 min.

EGFR (T790M/L858R) = biological target: T3, EGFR (T790M/L858R) (Homo sapiens, UniProt P00533, L858R/T790M); experiment: In vitro enzymatic activity (ADP-Glo); assay type: biochemical; conditions: 4 hrs preincubation, 10 μM ATP
T3 construct: The intracellular segment (699-1068) region of EGFR was cloned into the insect expression vector pAcG2T; GST; made in house; host or cells: SF9 insect cells (baculovirus)
T3 sequence (P00533 699-1068 T790M/L858R): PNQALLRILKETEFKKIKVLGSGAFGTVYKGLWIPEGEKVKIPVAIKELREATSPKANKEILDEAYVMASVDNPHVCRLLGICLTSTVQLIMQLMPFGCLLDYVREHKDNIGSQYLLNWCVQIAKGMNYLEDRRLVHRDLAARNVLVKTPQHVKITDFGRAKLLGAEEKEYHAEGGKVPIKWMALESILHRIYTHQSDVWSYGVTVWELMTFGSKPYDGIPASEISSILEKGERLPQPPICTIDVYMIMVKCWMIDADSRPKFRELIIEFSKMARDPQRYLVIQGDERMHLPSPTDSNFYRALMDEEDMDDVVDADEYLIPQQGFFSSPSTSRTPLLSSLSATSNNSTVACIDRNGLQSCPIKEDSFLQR
Method: (§3) In the experimental assay of in vitro enzymatic activity, the IC50 values of Compound 1 and Compound 19 on different kinases including BTK, EGFR (WT), EGFR/T790M, EGFR L858R/T790M, JAK1, JAK2, and JAK3 were determined. The intracellular segment (699-1068) region of EGFR was cloned into the insect expression vector pAcG2T, and was protein expressed by using an insect expression system, BaculoGold™ Baculovirus Expression System (BD Pharmingen), with GST tag. The mutations of T790M and L858R sites were performed simultaneously to give T790M single mutant vector and T790M/L858R double mutant vector of EGFR, respectively. The established vectors were transfected into SF9 packaging viruses, so as to infect the SF9-expressed proteins with the viruses; JAK1 and JAK2 were purchased from Life Technologies (US) and Abcam (US), respectively; JAK3 and BTK were purchased from Progema (US).
(§4) BTK protein kinase 9 μL (concentration of 1.5 ng/μL), JAK1, JAK2, JAK3 protein kinases 9 μL (concentration of 3 ng/μL, 3 ng/μL, 1.5 ng/μL), purified EGFR (WT), EGFR (T790M), EGFR (T790M/L858R) protein kinases 9 μL (all with concentration of 6 ng/μL) were respectively used, and each was reacted with three-fold gradient dilution of pharmaceutical Compound 1 and Compound 19 (final concentrations of the agents were 10 μM, 3 μM, 1 μM, 0.3 μM, 0.1 μM, 0.03 μM, 0.01 μM, 0.003 μM), respectively, at room temperature for 4 hrs;
(§5) 2 μL of ATP and 3 μL of substrate, Poly(4:1 Glu, Tyr)Peptide (Promega, US), were added (final concentrations are 10 μM and 0.2 μg/μL, respectively), and reacted at 37° C. for 1 hr;
(§6) 5 μL of reacted kinase solution was added into 5 μL of ADP-Glo™ (Promega, US) and reacted at room temperature for 40 min, the kinase reaction was stopped and the remained ATP was consumed;
as §2

EGFR (WT) = biological target: T4, EGFR (WT) (Homo sapiens, UniProt P00533); experiment: In vitro enzymatic activity (ADP-Glo); assay type: biochemical; conditions: 4 hrs preincubation, 10 μM ATP
T4 construct: The intracellular segment (699-1068) region of EGFR was cloned into the insect expression vector pAcG2T; GST; made in house; host or cells: SF9 insect cells (baculovirus)
T4 sequence (P00533 699-1068): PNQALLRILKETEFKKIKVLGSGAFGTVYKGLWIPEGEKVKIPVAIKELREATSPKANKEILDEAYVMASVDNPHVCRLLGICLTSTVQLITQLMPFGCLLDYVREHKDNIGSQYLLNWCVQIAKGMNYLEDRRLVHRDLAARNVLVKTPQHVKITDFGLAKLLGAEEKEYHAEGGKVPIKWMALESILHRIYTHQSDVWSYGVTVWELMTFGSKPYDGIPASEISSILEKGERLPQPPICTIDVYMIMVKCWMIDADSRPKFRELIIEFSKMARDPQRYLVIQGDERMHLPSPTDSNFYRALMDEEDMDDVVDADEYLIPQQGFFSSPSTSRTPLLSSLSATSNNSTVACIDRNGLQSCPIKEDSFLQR
Method: as §3, §4, §5, §6, §2

JAK3 = biological target: T5, JAK3 (Homo sapiens, UniProt P52333); experiment: In vitro enzymatic activity (ADP-Glo); assay type: biochemical; conditions: 4 hrs preincubation, 10 μM ATP
T5 construct: purchased Progema (US) [sic; Promega]
T5 sequence (P52333 whole entry): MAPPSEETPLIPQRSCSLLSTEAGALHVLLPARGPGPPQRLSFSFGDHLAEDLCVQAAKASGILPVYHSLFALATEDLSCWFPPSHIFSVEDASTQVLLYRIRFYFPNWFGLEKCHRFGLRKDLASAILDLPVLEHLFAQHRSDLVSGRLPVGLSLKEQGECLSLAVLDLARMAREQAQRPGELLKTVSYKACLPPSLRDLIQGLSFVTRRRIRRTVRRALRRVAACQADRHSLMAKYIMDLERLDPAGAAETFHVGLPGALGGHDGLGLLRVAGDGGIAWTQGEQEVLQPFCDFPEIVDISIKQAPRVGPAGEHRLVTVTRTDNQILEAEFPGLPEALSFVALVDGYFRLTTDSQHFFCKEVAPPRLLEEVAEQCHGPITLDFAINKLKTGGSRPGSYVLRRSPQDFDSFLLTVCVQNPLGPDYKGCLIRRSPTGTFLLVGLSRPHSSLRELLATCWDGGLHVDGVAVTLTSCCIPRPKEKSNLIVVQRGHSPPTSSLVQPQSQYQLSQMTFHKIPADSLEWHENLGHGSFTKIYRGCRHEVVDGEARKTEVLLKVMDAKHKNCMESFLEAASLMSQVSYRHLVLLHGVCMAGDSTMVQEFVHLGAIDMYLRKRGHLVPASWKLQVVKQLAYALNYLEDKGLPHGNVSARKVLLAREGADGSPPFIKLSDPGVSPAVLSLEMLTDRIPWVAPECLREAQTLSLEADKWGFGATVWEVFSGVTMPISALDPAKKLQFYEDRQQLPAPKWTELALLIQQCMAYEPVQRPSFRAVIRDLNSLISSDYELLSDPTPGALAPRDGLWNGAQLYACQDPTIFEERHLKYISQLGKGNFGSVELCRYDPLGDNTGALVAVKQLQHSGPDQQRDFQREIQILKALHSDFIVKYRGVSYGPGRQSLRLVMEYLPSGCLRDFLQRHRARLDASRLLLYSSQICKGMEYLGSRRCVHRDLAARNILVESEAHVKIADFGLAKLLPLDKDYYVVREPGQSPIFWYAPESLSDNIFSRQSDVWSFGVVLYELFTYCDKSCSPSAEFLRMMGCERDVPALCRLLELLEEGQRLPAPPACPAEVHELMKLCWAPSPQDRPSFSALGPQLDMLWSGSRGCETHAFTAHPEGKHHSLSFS
Method: as §3, §4, §5, §6, §2

EGFR (T790M) = biological target: T6, EGFR (T790M) (Homo sapiens, UniProt P00533, T790M); experiment: In vitro enzymatic activity (ADP-Glo); assay type: biochemical; conditions: 4 hrs preincubation, 10 μM ATP
T6 construct: The intracellular segment (699-1068) region of EGFR was cloned into the insect expression vector pAcG2T; GST; made in house; host or cells: SF9 insect cells (baculovirus)
T6 sequence (P00533 699-1068 T790M): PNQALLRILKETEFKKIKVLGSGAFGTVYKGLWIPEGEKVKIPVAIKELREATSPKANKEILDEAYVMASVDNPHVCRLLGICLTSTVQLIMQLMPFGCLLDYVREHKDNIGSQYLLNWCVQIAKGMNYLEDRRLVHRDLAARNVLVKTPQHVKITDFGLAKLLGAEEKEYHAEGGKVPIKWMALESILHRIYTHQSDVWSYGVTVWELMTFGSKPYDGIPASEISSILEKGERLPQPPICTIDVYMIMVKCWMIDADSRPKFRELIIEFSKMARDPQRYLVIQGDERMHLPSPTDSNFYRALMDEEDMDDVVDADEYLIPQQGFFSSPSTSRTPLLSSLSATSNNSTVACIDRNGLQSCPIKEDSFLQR
Method: as §3, §4, §5, §6, §2

EC50 [1] [µM] | EC50 (tyrosine Y223 on Btk) [µM] | IC50 (BTK) [µM] | IC50 (BTK WT protein; 30 min room temperature preincubation, 37° C., 20 min) [µM] | IC50 (EGFR (T790M/L858R)) [µM] | IC50 (EGFR (WT)) [µM] | IC50 (JAK3) [µM] | IC50 (EGFR (T790M)) [µM] | inhibitory effect on BTK WT (BTK WT protein; 3-1000 nM) | Structure (SMILES)
0.36 | 0.217 | 0.0756 | 0.056 | 1.34 | 2.45 | 0.169 | 5.5 | – | C=CC(=O)Nc1cc(-n2c(=O)ccc3cnc4ccc(-n5cccn5)cc4c32)ccc1C [Compound 1, N-(2-methyl-5-(2-oxo-9-(1H-pyrazol-1-yl)benzo[H][1,6]naphthyridin-1(2H)-yl)phenyl)acrylamide]
– | – | – | – | – | – | – | – | no inhibitory effect | CCC(=O)Nc1cc(-n2c(=O)ccc3cnc4ccc(-n5cccn5)cc4c32)ccc1C [Compound 19, N-(2-methyl-5-(2-oxo-9-(1H-pyrazol-1-yl)benzo[H][1,6]naphthyridin-1(2H)-yl)phenyl) propionamide]
